Measurements from patent US20080085859A1, “Drug Promoting Ceramide Transport, Base Sequence for Producing the Drug, Method of Measuring Activity of Promoting Ceramide Release and Method of Measuring Activity of Promoting Intermembrane Ceramide Transfer” (JAPAN SCIENCE AND TECHNOLOGY AGENCY, priority 2003, published 2008).

Legend:
Type in all cases: cell-based, Chinese hamster
CHO-K1 cell = test: influence of ceramide transport inhibitor on SM synthesis, [14C] serine labeling; settings: 1 μM, FIG. 8
Method: (§1) CHO-K1 cell, LY-A2 cell, and LY-A2/hCERT cell were inoculated at the cell density of 1.0×10^6 per culture dish having the 60-mm diameter, and cultured at 33° C. overnight. Subsequently, it was exchanged with […] of Nutridoma medium, after [^14C] serine (0.75 μCi) or [^14C] choline (1.0 μCi) have been added, in the case where [^14C] serine is added, it was cultured for 2 hours, and in the case where [^14C] choline is added, it was cultured at 33° C. for 5 hours. However, in the case where the influence on (1R, 3R) HPA-12 is analyzed, after it was pretreated at […] for 15 minutes in 1.5 mL of Nutridoma medium to which 1 μM of (1R,3R) HPA-12 has been added (in control experiment, dimethylsulfoxide used for dissolving a drug was added at the concentration corresponding to 0.01% of the final concentration), [^14C] serine was added, and cultured at 33° C. for 2 hours. After the cell was washed twice in 2 mL of cooled PBS, dissolved in 900 μL of sodium dodecyl sulfate (SDS), then, 800 μL and 20 μL of dissolved matter were used for determining lipid extraction and protein concentration. For the purpose of analyzing lipid labeled with [^14C] serine, the lipid was separated by TLC by making acetic methyl/n-propanol/chloroform/methanol/0.25% KCl (25:25:25 10:9, volume ratio) development solvent. The radioactive lipid separated on the plate was detected and analyzed by an image analyzer.
(§2) The present inventors have already found a selective inhibitor with respect to ATP dependent ceramide transport pathway (J. Biol. Chem. 276,43994-44002, 2001). For the purpose of examining whether or not ceramide transport pathway recovered by introducing hCERT is a transport pathway which is sensitive to (1R,3R) HPA-12, the analysis of the influence of (1R, 3R) HPA-12 treatment with respect to SM biosynthesis was performed by performing a lipid metabolism labeling experiment using radioactive serine.

LY-A2 cell [1] = test: as above; settings: FIG. 8
Method: as §1, §2

LY-A2 cell [2] = test: MCD resistance by counting the number of survived cells; settings: LY-A2 cell infected with expressing retrovirus, FIGS. 10(A), 12(A)
Method: The method of selecting function recovery strain used herein was performed on the basis of the knowledge that a cell whose SM content has been reduced becomes highly sensitive to cholesterol drawing reagent/methylcyclodextrin (MCD), and the cell whose SM content has been recovered recovers the resistance to MCD. As described in the foregoing paragraph, after the infected cell that has been seeded and cultured at 33° C. overnight was washed twice in 10 mL of serum-free F12 medium, it has been at 37° C. for one hour in 25 mL. After the culture dish was washed three times with 12 mL of PBS, 25 mL of F12/NBS was added and cultured at 33° C. for 7 to 10 days. […]
It has been validated whether or not CERT protein and CERTL which is a large separate splicing type product having 26 amino acid residue complements the deletion of LY-A cell. […] The MCD resistance of the obtained (LY-A2+FL-hCERT) cell and ((LY-A2+FL-hCERTL) cell were measured by counting the number of survived cells in accordance with the method described in <Method of selecting MCD resistance recovery strain>. Moreover, the MCD resistance of (LY-A2+empty vector) cell, CHO-K1 cell and LY-A2 cell obtained by infecting LY-A2 cell using pLIB vector in which gene has not been inserted were also similarly measured. The results are indicated in FIG. 10(A). […]

Row | Molecule | inhibition of SM synthesis (CHO-K1 cell) | inhibition of SM synthesis (LY-A2 cell [1]; 1 μM, cell printed as LY-A2 cell (first sentence of b175)) | additional inhibition of SM biosynthesis (LY-A2 cell [1]; LY-A2 cell where HPA-12-sensitive pathway is impaired) | MCD resistance (LY-A2 cell [2])
1 | CCCCCCCCCCCC(=O)N[C@@H](CO)C[C@@H](O)c1ccccc1 [(1R,3R) HPA-12, (1R,3R)N-(3-hydroxy-1-hydroxymethyl-3-phenyprol) dodecane amide] | significantly inhibited | significantly inhibited | another additional inhibition was not seen | –
2 | FL-hCERT: hCERT with FL (FLAG) sequence added to amino end (protein, UniProt Q9Y5P4 1-624, looked up, N-terminal FLAG tag) Ceramide transfer protein: MSDNQSWNSSGSEEDPETESGPPVERCGVLSKWTNYIHGWQDRWVVLKNNALSYYKSEDETEYGCRGSICLSKAVITPHDFDECRFDISVNDSVWYLRAQDPDHRQQWIDAIEQHKTESGYGSESSLRRHGSMVSLVSGASGYSATSTSSFKKGHSLREKLAEMETFRDILCRQVDTLQKYFDACADAVSKDELQRDKVVEDDEDDFPTTRSDGDFLHSTNGNKEKLFPHVTPKGINGIDFKGEAITFKATTAGILATLSHCIELMVKREDSWQKRLDKETEKKRRTEEAYKNAMTELKKKSHFGGPDYEEGPNSLINEEEFFDAVEAALDRQDKIEEQSQSEKVRLHWPTSLPSGDAFSSVGTHRFVQKPYSRSSSMSSIDLVSASDDVHRFSSQVEEMVQNHMTYSLQDVGGDANWQLVVEEGEMKVYRREVEENGIVLDPLKATHAVKGVTGHEVCNYFWNVDVRNDWETTIENFHVVETLADNAIIIYQTHKRVWPASQRDVLYLSVIRKIPALTENDPETWIVCNFSVDHDSAPLNNRCVRAKINVAMICQTLVSPPEGNQEISRDNILCKITYVANVNPGGWAPASVLRAVAKREYPKFLKRFTSYVQEKTAGKPILF | – | – | – | significantly acquired the MCD resistance
